Legend:
Caco-2 cell monolayers = assay: Bidirectional transport across Caco-2 cell monolayer; format: in vitro ADME, human; details: 50 μmol/L, no inhibitor
Description: The cells were seeded at a density of approximately 10^5 cells/cm^2 on TranswellTM filter (Corning Inc., Lowell, MA) and cultured for 21 d before use. Cell monolayer integrity was controlled by the measurement of trans-epithelial electrical resistance (TEER) with an EVOM epithelial voltammeter equipped with an electrode (World Precision Instruments, Sarasota, FL, United States). […] (a) R(%)=CBL×VBL/CAP×VAP×100 In this, R represents the absorption rate (as a percentage); CBL is the anthocyanin concentration of the BL side (in μM); VBL is the volume of anthocyanins from the BL (in L); CAP is the initial anthocyanin concentration of the AP side (in μM), and VAP is the volume of anthocyanins in the AP chamber (in L). The absorption rate of anthocyanins from BL to AP is calculated using the following Equation b: (b) R(%)=CAP×VAP/CBL×VBL×100 In this, R represents the absorption rate (as a percentage); CAP is the anthocyanin concentration from the AP side (in μM); VAP is the volume of anthocyanins in the AP chamber (in mL); CBL is the initial concentration from the BL side (in μM) and VBL is the volume of anthocyanins in the BL chamber (in L).

HepG2 cells = assay: TG and TC content in OA-induced high-fat HepG2 cells; format: cell-based, human; details: 1 mM OA high-fat model vs control group
Description: For high fat HepG2 model: […] Afterwards, cells were harvested and lysed. […] For TG and TC assay: […] The medium was removed and the cells were washed twice with PBS. The levels of triglycerides (TG) and total cholesterol (TC) in the cells were determined according to the instructions of test kits.

Fasn = assay: Western blot of Fasn protein in Caco-2/HepG2 co-culture; format: cell-based, human; details: 1 mM OA vs. control, p < 0.01
Description: Cells from the co-culture model were lysed and supernatants were collected. The protein concentrations were determined using the BCA Protein Quantitation Kit. Then electrophoresis of samples was conducted using a SDS-PAGE kit (Beyotime Biotechnology) following the manufacturer’s instructions and transferred to poly-vinylidene difluoride (PVDF) membrane. Next, membranes were incubated in 5% nonfat milk to block non-specific antibody binding for 30 min at room temperature and followed by incubating with primary antibodies and secondary antibodies. Chemiluminescence based-images of the blots were acquired using ImageQuant LAS 500 system (GE, United States). Protein bands were quantified using ImageJ (version 1.53a) software. The changes in expression levels of these proteins detected finally are used to evaluate the sample’s effect on lipid metabolism.

SMILES	ER (efflux rate) (Caco-2 cell monolayers; 30 min)	Papp (AP → BL) (Caco-2 cell monolayers; 30 min)	ER (efflux rate) (Caco-2 cell monolayers; 60 min)	Papp (AP → BL) (Caco-2 cell monolayers; 60 min)	ER (efflux rate) (Caco-2 cell monolayers; 90 min)	Papp (AP → BL) (Caco-2 cell monolayers; 90 min)	ER (efflux rate) (Caco-2 cell monolayers; 120 min)	Papp (AP → BL) (Caco-2 cell monolayers; 120 min)	ER (efflux rate) (Caco-2 cell monolayers; 150 min)	Papp (AP → BL) (Caco-2 cell monolayers; 150 min)	increase of TC level (HepG2 cells) [%]	increase of TG level (HepG2 cells) [%]	Fasn protein expression level (Fasn) [fold]
O=C1OC2(c3ccc(O)cc3Oc3cc(O)ccc32)c2ccccc21 [Fluorescin, Fluorescein, reference compound]	0.56	5.75 ± 0.17 ×10^−5 cm /s	0.34	5.07 ± 1.72 ×10^−5 cm /s	0.3	4.59 ± 2.21 ×10^−5 cm /s	0.27	4.6 ± 2.63 ×10^−5 cm /s	0.25	4.65 ± 2.94 ×10^−5 cm /s	–	–	–
CCCCCCCC/C=C\CCCCCCCC(=O)O [OA, Oleic acid]	–	–	–	–	–	–	–	–	–	–	12	22	1.59 ± 0.16
